Assay in all cases: NCI-60 cell line screen, 48 h
In experiment [1] the test system is NCI-H23 lung.
For experiment [2], the system named is OVCAR-5 ovarian.
The subject of experiment [3] is NCI-H522 lung.
In experiment [4] the test system is NCI/ADR-RES ovarian.
The subject of experiment [5] is U251 CNS.
Experiment [6] deals with UACC-257 melanoma.
Experiment [7] deals with MOLT-4 leukemia.
The subject of experiment [8] is ACHN renal.
Experiment [9] relates to HOP-92 NSCLC.
Experiment [10] has as its system SK-OV-3 ovarian.
The test system of experiment [11] is UO-31 renal.
The subject of experiment [12] is K-562 leukemia.
In experiment [13] the test system is MDA-MB-435.
The subject of experiment [14] is EKVX NSCLC.
In experiment [15] the test system is SF-539 CNS.
In experiment [16] the test system is HCC-2998 colon.

We go through nine compounds from PubChem BioAssay (NCI).

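A five-concentration, 48-hour dose response in 96-well plates underlies each endpoint, interpolated linearly between surrounding concentrations. At the TGI there is no net growth.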

As for `CCOc1ccc(N2C(=O)NC3(c4ccccc4)N(C)C(=O)N(C)C23c2ccccc2)cc1` (configuration not stated), the TGI in experiment [1], in experiment [2], in experiment [3], in [4], in experiment [5] and in [6] was above 100 µM each time. For the same compound, the TGI in experiment [7], in experiment [8], in experiment [9], in experiment [10], in experiment [11] and in experiment [12] was above 100 µM in each case. Further, the TGI in [13], in experiment [14] and in experiment [15] was above 100 µM throughout.

As for `COc1ccc(C[n+]2cccc(O)c2)cc1`, the TGI in [1], in [2], in [4], in experiment [5], in experiment [7] and in experiment [8] was above 100 µM in each case. Moreover, the TGI in experiment [9], in [10], in [11], in [12], in experiment [13] and in experiment [16] was above 100 µM in each case. The TGI in [14] and in experiment [15] was above 100 µM each time.

As for `COc1ccc(C(=O)N2CCN(c3ccc4c(c3)OCC(=O)N4)CC2)cc1OC`, the TGI in experiment [1], in experiment [2], in experiment [3], in experiment [4], in experiment [5] and in [6] was above 100 µM each time. The TGI in experiment [7], in experiment [8], in experiment [9], in [10], in [11] and in experiment [13] was above 100 µM each time. The TGI in experiment [16], in [14] and in [15] was above 100 µM in each case.

Turning to `COc1ccc2nc3c(C)cc4ccccc4n3c2c1`, the TGI in experiment [1], in [2], in [4], in experiment [5], in experiment [6] and in experiment [7] was above 100 µM in each case. For the same compound, the TGI in [8], in experiment [9], in experiment [10], in experiment [11], in experiment [12] and in experiment [13] was above 100 µM in each case. For the same compound, the TGI in experiment [16], in experiment [14] and in [15] was above 100 µM in each case.

In the case of `CC(NC(=O)C(N)CC(=O)O)C(=O)OC12CC3CC(CC(C3)C1)C2` (configuration not stated), the TGI in experiment [1], in experiment [2], in experiment [3], in experiment [4], in experiment [5] and in experiment [6] was above 100 µM throughout. Also, the TGI in experiment [7], in experiment [8], in [9], in experiment [10], in [11] and in experiment [12] was above 100 µM throughout. For the same compound, the TGI in experiment [13], in [16] and in experiment [14] was above 100 µM each time.

With `COc1ccc(-c2[nH]c(-c3ccc(OC)cc3)c(-c3ccccn3)c2-c2ccccn2)cc1`, the TGI in experiment [1], in experiment [2], in experiment [4], in experiment [5], in experiment [6] and in experiment [7] was above 100 µM each time. In addition, the TGI is above 100 µM in [8]; above 100 µM in [9]; above 100 µM in [10]; above 100 µM in [11]; 84.5 µM in experiment [12]; above 100 µM in [13]. Besides, the TGI is 46.3 µM in [16], above 100 µM in [14] and above 100 µM in experiment [15].

For the compound `Cc1cccc2c(N)c3cccc(C(=O)NCC[N+](C)(C)Cc4ccc(S(C)(=O)=O)cc4)c3nc12`, the TGI in experiment [1], in [2], in experiment [4], in [5], in [6] and in [8] was above 100 µM throughout. The TGI in [9] is above 100 µM; in experiment [10], above 100 µM; in experiment [11] it was above 100 µM; in experiment [12], above 52.2 µM; in experiment [13], above 100 µM; in experiment [16] it was above 100 µM. Further, the TGI in experiment [14] and in [15] was above 100 µM in each case.

Regarding `CC(=O)Nc1ncc2c(n1)-c1ccccc1OC2c1ccccc1` (configuration not stated), the TGI in experiment [1], in experiment [2], in [3], in experiment [4], in experiment [5] and in experiment [6] was above 100 µM throughout. Also, the TGI in experiment [7] was above 100 µM; in experiment [8], 28.2 µM; in experiment [9] it was 41.4 µM; in [10], above 100 µM; in experiment [11], above 100 µM; in experiment [13], above 100 µM. Besides, the values for the TGI in experiment [14] and in [15] were above 100 µM and 35.1 µM, respectively.

As to `N#CC(NNC(=O)c1c(Cl)c(Cl)c(Cl)c(Cl)c1-c1nc2ccc(C(=O)c3ccccc3)cc2[nH]1)c1ccccc1` (configuration not stated), the TGI in experiment [1] is 90.3 µM; in [2], above 100 µM; in experiment [3] it was 18 µM; in experiment [4], 32.2 µM; in experiment [5], above 100 µM; in experiment [6], above 100 µM. Also, the TGI in [7] was 27.7 µM; in experiment [8], above 100 µM; in [9] it was above 100 µM; in experiment [10], 69.8 µM; in experiment [11] it was above 100 µM; in experiment [12] it was 19.3 µM. The TGI in experiment [13] was 15.3 µM; in experiment [14] it was above 100 µM; in [15], 14.5 µM.
